From ChEMBL document CHEMBL1629455, “Discovery of a novel class of biphenyl pyrazole sodium channel blockers for treatment of neuropathic pain” (Bioorg Med Chem Lett, 2010) come the findings set out here.

Data set [1] has as its target hERG (KCNH2) (Homo sapiens, UniProt Q12809). The data set is described as follows: Inhibition of MK-0499 binding to human ERG at 10 uM. Particulars: probe MK-0499.
For data set [2], the target named is T1, Sodium channel protein type 9 subunit alpha (Homo sapiens, UniProt Q15858). The data set is described as follows: Inhibition of human Nav1.7 at 10 uM by VIPR assay.
Target sequence in this assay (Q15858 whole entry, looked up): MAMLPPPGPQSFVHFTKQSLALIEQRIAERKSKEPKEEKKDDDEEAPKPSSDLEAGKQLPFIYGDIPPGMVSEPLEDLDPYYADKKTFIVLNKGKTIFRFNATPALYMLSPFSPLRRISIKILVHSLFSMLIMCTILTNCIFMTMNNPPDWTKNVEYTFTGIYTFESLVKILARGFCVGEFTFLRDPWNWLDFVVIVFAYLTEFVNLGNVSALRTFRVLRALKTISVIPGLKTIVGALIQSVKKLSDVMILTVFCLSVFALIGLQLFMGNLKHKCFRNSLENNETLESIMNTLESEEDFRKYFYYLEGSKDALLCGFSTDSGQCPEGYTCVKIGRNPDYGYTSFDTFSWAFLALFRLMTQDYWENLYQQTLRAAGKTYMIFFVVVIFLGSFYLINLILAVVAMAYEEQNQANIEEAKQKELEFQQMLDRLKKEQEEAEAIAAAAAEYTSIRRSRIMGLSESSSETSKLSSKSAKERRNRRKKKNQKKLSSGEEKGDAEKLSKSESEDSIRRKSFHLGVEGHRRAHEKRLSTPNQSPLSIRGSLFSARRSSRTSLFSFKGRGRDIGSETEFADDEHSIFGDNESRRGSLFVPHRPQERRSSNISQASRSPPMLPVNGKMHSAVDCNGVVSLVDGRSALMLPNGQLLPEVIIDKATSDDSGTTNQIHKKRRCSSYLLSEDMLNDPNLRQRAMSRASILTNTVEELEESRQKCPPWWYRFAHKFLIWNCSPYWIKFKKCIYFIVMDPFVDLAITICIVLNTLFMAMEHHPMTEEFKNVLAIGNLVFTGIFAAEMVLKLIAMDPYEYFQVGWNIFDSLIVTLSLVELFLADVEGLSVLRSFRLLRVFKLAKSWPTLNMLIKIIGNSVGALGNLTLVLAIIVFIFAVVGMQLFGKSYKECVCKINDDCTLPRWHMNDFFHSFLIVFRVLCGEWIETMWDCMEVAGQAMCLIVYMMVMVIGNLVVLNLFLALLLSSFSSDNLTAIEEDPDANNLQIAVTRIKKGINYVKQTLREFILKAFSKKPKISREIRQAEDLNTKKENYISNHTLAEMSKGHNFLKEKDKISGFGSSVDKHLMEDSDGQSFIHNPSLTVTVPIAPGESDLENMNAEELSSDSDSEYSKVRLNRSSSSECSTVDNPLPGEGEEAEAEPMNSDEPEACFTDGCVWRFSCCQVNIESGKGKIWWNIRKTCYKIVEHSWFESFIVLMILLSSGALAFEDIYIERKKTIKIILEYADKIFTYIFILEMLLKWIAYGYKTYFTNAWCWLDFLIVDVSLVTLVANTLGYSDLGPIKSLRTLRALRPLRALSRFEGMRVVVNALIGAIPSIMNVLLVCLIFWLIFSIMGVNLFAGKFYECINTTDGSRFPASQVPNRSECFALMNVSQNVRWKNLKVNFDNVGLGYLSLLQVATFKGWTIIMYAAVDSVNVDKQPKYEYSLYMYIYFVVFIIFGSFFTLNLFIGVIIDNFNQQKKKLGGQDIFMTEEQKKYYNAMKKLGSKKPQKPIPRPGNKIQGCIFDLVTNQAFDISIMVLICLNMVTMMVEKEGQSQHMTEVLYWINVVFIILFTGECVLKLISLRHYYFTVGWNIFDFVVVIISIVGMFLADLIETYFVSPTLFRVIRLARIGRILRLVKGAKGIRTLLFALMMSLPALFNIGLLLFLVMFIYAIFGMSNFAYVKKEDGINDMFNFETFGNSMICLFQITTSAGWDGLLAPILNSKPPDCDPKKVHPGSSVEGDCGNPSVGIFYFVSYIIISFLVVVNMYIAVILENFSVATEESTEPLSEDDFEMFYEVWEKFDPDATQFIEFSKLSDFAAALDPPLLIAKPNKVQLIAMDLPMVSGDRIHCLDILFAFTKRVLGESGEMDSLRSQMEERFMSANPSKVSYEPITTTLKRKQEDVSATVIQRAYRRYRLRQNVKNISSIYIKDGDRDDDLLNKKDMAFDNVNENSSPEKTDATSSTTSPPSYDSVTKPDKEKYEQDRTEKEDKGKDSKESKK
Data set [3] concerns Rattus norvegicus. The data set is described as follows: Antiallodynic activity in rat spinal nerve ligation model of neuropathic pain assessed as reversal of allodynia at 10 mg/kg, po after 4 hrs. In kind it is functional.
Data set [4] concerns the target T1, Sodium channel protein type 9 subunit alpha. As to the kind of experiment: Inhibition of human Nav1.7 by VIPR assay.
Target sequence in this assay (Q15858 whole entry): as the sequence (Q15858 whole entry, looked up) above
Data set [5] concerns the target Sodium channel protein type 10 subunit alpha (Homo sapiens, UniProt Q9Y5Y9). The data set is described as follows: Inhibition of human Nav1.8 by VIPR assay.
The test system of data set [6] is Rattus norvegicus. As to the kind of experiment: Antiallodynic activity in rat spinal nerve ligation model of neuropathic pain assessed as reversal of allodynia at 10 mg/kg, po after 2 hrs. The class given is functional.

The inhibition is the drop in the measured response relative to a control, in per cent. Lower therefore signals little suppression. As usually defined, the IC50 is the concentration that inhibits the measured activity by half. Lower therefore signals inhibition by little substance. Usually Ki stands for a measure of affinity in units of concentration, obtained from inhibition or displacement. A lower Ki goes with higher affinity.

Chain of hERG (KCNH2) (Q12809 whole entry): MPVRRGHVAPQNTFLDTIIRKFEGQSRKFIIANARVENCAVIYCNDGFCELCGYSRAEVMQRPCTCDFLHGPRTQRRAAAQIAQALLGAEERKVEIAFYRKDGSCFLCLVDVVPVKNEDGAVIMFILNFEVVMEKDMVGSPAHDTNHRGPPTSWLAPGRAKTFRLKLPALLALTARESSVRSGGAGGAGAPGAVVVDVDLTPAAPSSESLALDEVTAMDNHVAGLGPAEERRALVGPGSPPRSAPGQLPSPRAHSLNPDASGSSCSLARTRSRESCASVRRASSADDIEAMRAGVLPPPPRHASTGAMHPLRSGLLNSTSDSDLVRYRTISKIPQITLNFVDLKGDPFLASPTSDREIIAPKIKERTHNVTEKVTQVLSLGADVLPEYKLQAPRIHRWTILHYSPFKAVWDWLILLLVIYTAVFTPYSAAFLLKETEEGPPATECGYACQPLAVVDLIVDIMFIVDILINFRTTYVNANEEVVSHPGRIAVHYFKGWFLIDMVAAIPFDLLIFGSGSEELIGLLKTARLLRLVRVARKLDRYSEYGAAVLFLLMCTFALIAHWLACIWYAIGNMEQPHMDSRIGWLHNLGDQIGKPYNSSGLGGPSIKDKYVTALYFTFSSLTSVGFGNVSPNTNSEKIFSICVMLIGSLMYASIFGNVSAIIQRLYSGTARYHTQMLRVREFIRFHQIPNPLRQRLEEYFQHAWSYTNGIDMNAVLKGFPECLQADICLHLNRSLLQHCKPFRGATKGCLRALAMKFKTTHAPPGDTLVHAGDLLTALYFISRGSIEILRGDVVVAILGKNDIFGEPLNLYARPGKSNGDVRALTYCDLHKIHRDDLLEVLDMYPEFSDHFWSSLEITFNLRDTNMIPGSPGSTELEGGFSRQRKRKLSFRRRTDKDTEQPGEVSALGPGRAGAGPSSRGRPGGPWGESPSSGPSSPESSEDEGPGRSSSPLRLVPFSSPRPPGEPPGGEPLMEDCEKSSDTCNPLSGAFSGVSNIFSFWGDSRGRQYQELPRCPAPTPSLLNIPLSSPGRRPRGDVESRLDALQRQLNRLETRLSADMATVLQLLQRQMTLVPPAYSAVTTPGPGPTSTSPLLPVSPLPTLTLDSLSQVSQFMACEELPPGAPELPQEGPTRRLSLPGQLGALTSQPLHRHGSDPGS
Chain of Sodium channel protein type 10 subunit alpha (Q9Y5Y9 whole entry): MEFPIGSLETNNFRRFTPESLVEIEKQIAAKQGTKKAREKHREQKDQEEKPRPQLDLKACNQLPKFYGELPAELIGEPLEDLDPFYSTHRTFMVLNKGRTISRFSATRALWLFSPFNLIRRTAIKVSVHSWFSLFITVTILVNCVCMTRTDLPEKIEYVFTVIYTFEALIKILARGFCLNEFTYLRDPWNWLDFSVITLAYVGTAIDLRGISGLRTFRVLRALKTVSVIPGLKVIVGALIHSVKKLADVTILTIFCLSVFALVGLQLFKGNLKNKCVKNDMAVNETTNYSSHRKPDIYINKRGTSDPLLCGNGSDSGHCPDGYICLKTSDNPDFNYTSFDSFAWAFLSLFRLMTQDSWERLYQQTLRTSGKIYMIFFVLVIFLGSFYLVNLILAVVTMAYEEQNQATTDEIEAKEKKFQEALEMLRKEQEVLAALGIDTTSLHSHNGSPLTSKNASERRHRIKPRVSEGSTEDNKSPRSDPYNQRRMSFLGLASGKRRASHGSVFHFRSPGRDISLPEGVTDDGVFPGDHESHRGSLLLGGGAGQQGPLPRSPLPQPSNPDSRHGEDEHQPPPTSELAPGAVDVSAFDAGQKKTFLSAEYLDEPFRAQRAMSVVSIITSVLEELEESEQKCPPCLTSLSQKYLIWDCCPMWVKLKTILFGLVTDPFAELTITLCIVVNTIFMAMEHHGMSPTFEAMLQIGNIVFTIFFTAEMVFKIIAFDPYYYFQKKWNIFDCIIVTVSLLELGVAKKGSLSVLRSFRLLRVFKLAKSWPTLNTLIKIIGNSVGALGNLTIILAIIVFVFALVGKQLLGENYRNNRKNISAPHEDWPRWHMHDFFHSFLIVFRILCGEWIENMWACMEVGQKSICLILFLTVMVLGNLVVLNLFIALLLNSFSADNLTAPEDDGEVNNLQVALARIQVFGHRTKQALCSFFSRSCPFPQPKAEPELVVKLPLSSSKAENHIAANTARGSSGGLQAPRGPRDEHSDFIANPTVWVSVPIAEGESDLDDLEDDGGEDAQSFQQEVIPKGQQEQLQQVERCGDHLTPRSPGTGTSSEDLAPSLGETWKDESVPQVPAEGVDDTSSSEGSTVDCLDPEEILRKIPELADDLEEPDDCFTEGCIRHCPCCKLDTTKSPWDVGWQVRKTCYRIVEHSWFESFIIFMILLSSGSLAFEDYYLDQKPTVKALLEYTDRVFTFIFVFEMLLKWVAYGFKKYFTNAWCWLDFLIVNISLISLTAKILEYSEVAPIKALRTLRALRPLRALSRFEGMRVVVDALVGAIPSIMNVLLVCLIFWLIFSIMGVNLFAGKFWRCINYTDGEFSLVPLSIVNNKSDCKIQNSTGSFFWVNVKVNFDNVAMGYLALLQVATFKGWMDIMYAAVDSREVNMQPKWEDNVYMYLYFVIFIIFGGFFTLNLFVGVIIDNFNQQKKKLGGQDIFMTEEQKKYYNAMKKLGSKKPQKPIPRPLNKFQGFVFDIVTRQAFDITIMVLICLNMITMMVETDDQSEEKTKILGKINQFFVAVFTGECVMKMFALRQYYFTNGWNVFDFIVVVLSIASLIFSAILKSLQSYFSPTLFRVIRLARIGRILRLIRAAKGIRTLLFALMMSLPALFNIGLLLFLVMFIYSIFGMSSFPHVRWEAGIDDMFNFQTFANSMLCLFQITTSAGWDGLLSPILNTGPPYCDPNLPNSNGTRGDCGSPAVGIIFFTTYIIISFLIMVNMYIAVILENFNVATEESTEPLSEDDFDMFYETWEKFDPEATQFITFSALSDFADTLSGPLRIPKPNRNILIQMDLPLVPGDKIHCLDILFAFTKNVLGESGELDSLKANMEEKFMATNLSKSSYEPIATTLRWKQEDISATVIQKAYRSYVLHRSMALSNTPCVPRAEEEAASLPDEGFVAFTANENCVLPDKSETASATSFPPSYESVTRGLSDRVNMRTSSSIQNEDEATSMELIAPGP

`CCNC(=O)c1cc(C(=O)NCC)n(-c2cccc(-c3ccccc3OC(F)(F)F)c2)n1` registered an inhibition at 10 µM in data set [1] of 27%. For the same compound, the inhibition in data set [2] was 1%.
Consider `NC(=O)c1cc(C(N)=O)n(-c2cccc(-c3ccccc3C(F)(F)F)c2)n1`, for which the Activity in data set [3] is reported as 2%; in data set [6], 9%. In addition, the IC50 in data set [4] was found to be 0.155 µM; in data set [5], 0.915 µM.
With `NC(=O)c1cc(C(N)=O)n(-c2cccc(-c3ccc(F)cc3OCC(F)(F)C(F)(F)F)c2)n1`, the Activity in data set [3] turned out to be 8%; in data set [6] it was 28%. Also, the midpoint of inhibition in data set [4], the IC50, lay at 0.106 µM.
As to `NC(=O)c1cc(C(N)=O)n(-c2cccc(-c3cccc(OC(F)(F)F)c3F)c2)n1`, the Activity in data set [3] is reported as 8%; in data set [6], 28%. The half-inhibitory concentration (IC50) in data set [4] was 0.282 µM; in data set [5], 1.51 µM.
In data set [1], `Cc1c(C(N)=O)c(C(N)=O)nn1-c1cccc(-c2ccccc2OC(F)(F)F)c1` had an inhibition at 10 µM of 15%. The Activity in data set [3] came to 8%; in data set [6], 16%. The 50% inhibitory concentration (IC50) in data set [4] amounted to 0.185 µM.
In the case of `Cc1cc(C(N)=O)nn1-c1cccc(-c2ccc(C(F)(F)F)cc2C(F)(F)F)c1`, in data set [4], affinity was put at a Ki of 0.34 µM.
For the compound `NC(=O)c1cc(C(N)=O)n(-c2cccc(-c3ccccc3OC(F)(F)F)c2)n1`, the inhibition at 10 µM in data set [1] stood at 21%. For the same compound, the Activity in data set [3] is 19%; in data set [6] it was 35%. For the same compound, the concentration for half-maximal inhibition (IC50) in data set [4] came out at 0.132 µM; in data set [5], 0.554 µM.
`NC(=O)c1cc(C(N)=O)n(-c2cccc(-c3cc(C(F)(F)F)ccc3OC(F)(F)F)c2)n1`: the Activity came to 6% in data set [3] and 29% in data set [6]. Moreover, the 50% inhibitory concentration (IC50) amounted to 0.325 µM in data set [4] and 1.18 µM in data set [5].
The corresponding values for `NC(=O)c1cc(C(N)=O)n(-c2cccc(-c3c(F)cccc3OC(F)(F)F)c2)n1` are 9%, 15%, 0.106 µM and 0.802 µM.
The corresponding values for `NC(=O)c1cc(C(N)=O)n(-c2cccc(-c3cccc(OC(F)(F)F)c3OCC(F)(F)C(F)(F)F)c2)n1` are 3%, 6%, 0.064 µM and 0.203 µM.
In the case of `Cc1cc(C(N)=O)nn1-c1cccc(-c2ccccc2OC(F)(F)F)c1`, at 10 µM the inhibition in data set [1] was 69%. The figures for the Activity in data set [3] and in data set [6] were 11% and 33%, respectively.
The compound `CCOC(=O)c1cc(C(N)=O)nn1-c1cccc(-c2ccccc2OC(F)(F)F)c1` yielded an inhibition at 10 µM in data set [1] of 72%. In data set [4], this compound yielded an IC50 of 0.01 µM.
For `NC(=O)c1cc(C(N)=O)n(-c2cccc(-c3cccc(C(F)(F)F)c3OCC(F)(F)C(F)(F)F)c2)n1`, the Activity in data set [3] was determined as 8%; in data set [6], 22%. The IC50 in data set [4] was 0.147 µM; in data set [5], 0.299 µM.
`NC(=O)c1cc(C(N)=O)n(-c2cccc(-c3cccc(Cl)c3Cl)c2)n1`: the Activity in data set [3] is 7%; in data set [6], 15%. Besides, in data set [4], half-maximal inhibition (IC50) required 0.195 µM.
Take `NC(=O)c1cc(C(N)=O)n(-c2cccc(-c3cc(F)ccc3OCC(F)(F)C(F)(F)F)c2)n1`: the Activity came out at 9% in data set [3] and 25% in data set [6]. The results for the half-inhibitory concentration (IC50) in data set [4] and in data set [5] were 0.046 µM and 0.149 µM, respectively.
The compound `NC(=O)c1cn(-c2cccc(-c3ccccc3OC(F)(F)F)c2)nc1C(N)=O` showed an inhibition at 10 µM in data set [1] of 1%. For the same compound, the values for the Activity in data set [3] and in data set [6] were 8% and 18%, respectively. Also, the IC50 in data set [4] was determined as 0.049 µM.
The compound `CCNC(=O)c1cc(C(N)=O)nn1-c1cccc(-c2ccccc2OC(F)(F)F)c1` gave an inhibition at 10 µM in data set [1] of 20%. The midpoint of inhibition in data set [4], the IC50, lay at 0.029 µM.
`NC(=O)c1cc(C(N)=O)n(-c2cccc(-c3c(C(F)(F)F)cccc3C(F)(F)F)c2)n1` registered a concentration for half-maximal inhibition (IC50) in data set [4] of 0.715 µM.
For `NC(=O)c1nn(-c2cccc(-c3ccccc3OC(F)(F)F)c2)c(C(N)=O)c1C(N)=O`, the inhibition at 10 µM in data set [1] worked out at 49%. In data set [4], this compound returned an IC50 of 0.115 µM.
With `NC(=O)c1cc(C(N)=O)n(-c2ccc(F)c(-c3ccccc3OC(F)(F)F)c2)n1`, the 50% inhibitory concentration (IC50) in data set [4] turned out to be 0.477 µM.
Regarding `NC(=O)c1nc(-c2cccc(-c3ccccc3OC(F)(F)F)c2)cs1`, the affinity in data set [4] corresponds to a Ki of 0.23 µM.
